Marks after values point to notes of the source that are not given here.
Tests used:
[1] = test system: S. pneumoniae 22425, a penicillin and macrolide resistant clinical isolate; assay: Combination time-kill studies; format: cell-based; conditions: for effect of compound G on the bactericidal activity (kill kinetics, kill extent) of the antibiotic: combination with compound G at 0.03 μg/ml and 1 μg/ml, S. pneumoniae
Procedure: Combination time-kill studies were performed as follows. Bacterial inocula were prepared as for MIC determination according to CLSI guidelines. Log phase cells (˜10^6 CFU/ml) were inoculated into 24 well plates and incubated with the indicated concentrations of compound G and commercial antibiotics for 24 hours at 35° C. At indicated time points samples were removed for determination of viable CFU counts. Results are plotted as log CFU/ml vs. time.

S. pneumoniae 22257 = assay: Combination Time-kill kinetics; format: cell-based; conditions: antibiotic alone at 4 × MIC (Azithromycin 0.12 ug/ml, Cefuroxime 8 ug/ml)
Procedure: (§1) As used herein, “synergy” refers to the in vitro effect of administration of a combination of an antibacterial agent such as a Fab I inhibiter, and antiinfective agent such that (1) the fractional inhibitory concentration (FIC) is less than or equal to 0.5 in an FIC assay described herein; or (2) there is at least a 100-fold (2 log10) increase in killing at 24 hours for the combination as compared with the bioactive agent alone in a time kill curve assay as described herein. An FIC of ≦0.5 is evidence of synergy. An additive response has an FIC value of >0.5 and less than or equal to 1, while an indifferent response has an FIC value of >1 and ≦2. An additive effect may still indicate that the combination of bioactive agent and cationic peptide are therapeutically useful.

S. pneumoniae 22425 = assay: Combination Time-kill kinetics; format: cell-based; conditions: Gatifloxacin alone, 4 × MIC (2 ug/ml)
Procedure: as §1

E. faecalis A6221420 = assay: Combination Time-kill kinetics; format: cell-based; conditions: Meropenem alone, 4 × MIC (16 ug/ml)
Procedure: as §1

S. aureus strains = assay: Checkerboard combination studies of compound G and commercial antibiotics (FIG. 6); format: cell-based; conditions: in combination with compound G, S. aureus strains tested
Procedure: Checkerboard experiments were performed and analyzed according to standard procedures as outlined below.

## CC[C@H]1OC(=O)[C@H](C)[C@@H](O[C@H]2C[C@@](C)(OC)[C@@H](O)[C@H](C)O2)[C@H](C)[C@@H](O[C@@H]2O[C@H](C)C[C@H](N(C)C)[C@H]2O)[C@](C)(O)C[C@@H](C)CN(C)[C@H](C)[C@@H](O)[C@]1(C)O [Azithromycin, reference compound]
[1]
  effect of compound G on the bactericidal activity (kill kinetics, kill extent) of the antibiotic: no effect
S. pneumoniae 22257
  logCFU/ml at Time (hr): 0: 6.35 logCFU/ml
  logCFU/ml at Time (hr): 3: 4.53 logCFU/ml
  logCFU/ml at Time (hr): 6: 3.39 logCFU/ml
  logCFU/ml at Time (hr): 8: ≤ 1.70* logCFU/ml
  logCFU/ml at Time (hr): 24: ≤ 1.70* logCFU/ml
  ΔlogCFU/ml (24-0 hr): −4.65 logCFU/ml

## CO/N=C(\C(=O)N[C@@H]1C(=O)N2C(C(=O)O)=C(COC(N)=O)CS[C@H]12)c1ccco1 [Cefuroxime, reference compound]
[1]
  effect of compound G on the bactericidal activity (kill kinetics, kill extent) of the antibiotic: no effect
S. pneumoniae 22257
  logCFU/ml at Time (hr): 0: 6.39 logCFU/ml
  logCFU/ml at Time (hr): 3: 1.92 logCFU/ml
  logCFU/ml at Time (hr): 6: 1.70 logCFU/ml
  logCFU/ml at Time (hr): 8: ≤ 1.70* logCFU/ml
  logCFU/ml at Time (hr): 24: ≤ 1.70* logCFU/ml
  ΔlogCFU/ml (24-0 hr): −4.69 logCFU/ml

## CN(Cc1cc2ccccc2n1C)C(=O)/C=C/c1ccc(N2C(=O)CCC2=O)nc1 [Example 213, (E)-3-[6-(2,5-Dioxo-pyrrolidin-1-yl)pyridin-3-yl]-N-methyl-N-(1-methyl-1H-indol-2-ylmethyl)acrylamide]
other
  melting point: 185 to 187 °C

## CN(Cc1cc2ccccc2n1C)C(=O)/C=C/c1ccc(NC(=O)CCC(N)=O)nc1 [Example 214, (E)-N-(5-{2-[Methyl-(1-methyl-1H-indol-2-ylmethyl)carbamoyl]vinyl}pyridin-2-yl)succinamide]
other
  melting point: 225 to 227 °C

## CN1CCN(C(=O)CCC(=O)Nc2ccc(/C=C/C(=O)N(C)Cc3cc4ccccc4n3C)cn2)CC1 [Example 215, (E)-N-(5-{2-[Methyl-(1-methyl-1H-indol-2-Ylmethyl)carbamoyl]vinyl}pyridin-2-yl)-4-(4-methyl-piperazin-1-yl)-4-oxo-butyramide]
other
  melting point: 145 to 147 °C (dec.)

## CN(Cc1cc2ccccc2n1C)C(=O)/C=C/c1ccc(NC(=O)CCC(=O)N2CCOCC2)nc1 [Example 216, (E)-N-(5-{2-[Methyl-(1-methyl-1H-indol-2-ylmethyl)carbamoyl]vinyl}pyridin-2-yl)-4-morpholin-4-yl-4-oxo-butyramide]
other
  melting point: 206 to 209 °C (dec.)

## COc1c(N2CCNC(C)C2)c(F)cc2c(=O)c(C(=O)O)cn(C3CC3)c12 (stereo not drawn) [Gatifloxacin, reference compound]
[1]; antibiotic alone, S. pneumoniae 22425, 24 hours, FIG. 8
  bactericidal activity, log reduction in CFU at 24 hours: −3.5 log
[1]
  effect of compound G on the bactericidal activity (kill kinetics, kill extent) of the antibiotic: no effect
S. pneumoniae 22425
  logCFU/ml at Time (hr): 0: 5.18 logCFU/ml
  logCFU/ml at Time (hr): 2: 4.26 logCFU/ml
  logCFU/ml at Time (hr): 6: 2.77 logCFU/ml
  logCFU/ml at Time (hr): 24: ≤ 1.70* logCFU/ml
  ΔlogCFU/ml (24-0 hr): −3.48 logCFU/ml

## C[C@@H](O)[C@H]1C(=O)N2C(C(=O)O)=C(S[C@@H]3CN[C@H](C(=O)N(C)C)C3)[C@H](C)[C@H]12 [Meropenem, reference compound]
E. faecalis A6221420
  logCFU/ml at Time (hr): 0: 5.12 logCFU/ml
  logCFU/ml at Time (hr): 2: 4.31 logCFU/ml
  logCFU/ml at Time (hr): 4: 3.41 logCFU/ml
  logCFU/ml at Time (hr): 8: 2.67 logCFU/ml
  logCFU/ml at Time (hr): 24: ≤ 1.70* logCFU/ml
  ΔlogCFU/ml (24-0 hr): −3.43 logCFU/ml

## CC(=O)NC[C@H]1CN(c2ccc(N3CCOCC3)c(F)c2)C(=O)O1 [linezolid]
S. aureus strains
  combination effect with compound G (synergistic / additive / antagonism): synergistic effect

## Gentamicin
S. aureus strains
  combination effect with compound G (synergistic / additive / antagonism): synergistic effect
